Columns and labels:
CCKB receptor = molecular target: T1, CCKB receptor (Mus musculus, UniProt P56481); test: CCKB receptor radioligand binding assay in mouse cortical membranes; conditions: [125I]-CCK8(S) 200 pM, 150 min at 21±3°, read-out: CCKB pKi (converted)
T1 construct: The whole brains from male mice (CD1 22-25 g; Charles River) were removed; from tissue; host or cells: cerebral cortex membranes of male CD1 mice
T1 sequence (P56481 1-453): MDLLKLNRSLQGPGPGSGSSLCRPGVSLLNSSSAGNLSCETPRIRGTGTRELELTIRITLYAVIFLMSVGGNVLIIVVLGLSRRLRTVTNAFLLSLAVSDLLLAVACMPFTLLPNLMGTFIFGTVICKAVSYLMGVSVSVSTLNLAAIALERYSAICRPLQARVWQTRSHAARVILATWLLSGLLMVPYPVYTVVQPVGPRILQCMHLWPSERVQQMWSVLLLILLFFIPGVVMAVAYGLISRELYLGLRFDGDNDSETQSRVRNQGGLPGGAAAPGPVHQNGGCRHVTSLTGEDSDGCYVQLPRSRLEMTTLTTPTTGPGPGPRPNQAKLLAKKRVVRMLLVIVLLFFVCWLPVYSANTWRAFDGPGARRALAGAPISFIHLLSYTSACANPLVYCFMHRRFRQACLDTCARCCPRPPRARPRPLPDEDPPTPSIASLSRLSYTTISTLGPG
How it was run: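 Bound radioactivity was gamma-counted after rapid GF/B filtration and cold 50 mM Tris-HCl (pH 7.4) washes. The tissue was cerebral cortex from male CD1 mice, prepared as twice-centrifuged membranes in pH 7.2 HEPES/NaCl/KCl/MgCl2/EDTA buffer with bacitracin at 20 mg/ml original wet weight.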

gastrin receptor = molecular target: T2, gastrin receptor (Rattus norvegicus, UniProt P30553); test: gastrin antagonist activity in immature rat stomach assay (pentagastrin dose-response, acid secretion); conditions: isolated immature rat stomach, cumulative pentagastrin dose-response curves, read-out: Gastrin pKb (converted)
T2 construct: The stomach was excised and flushed with ca. 1 ml of unbuffered physiological saline solution; from tissue; host or cells: isolated whole stomach of immature rats (ca. 21 days old)
T2 sequence (P30553 1-452): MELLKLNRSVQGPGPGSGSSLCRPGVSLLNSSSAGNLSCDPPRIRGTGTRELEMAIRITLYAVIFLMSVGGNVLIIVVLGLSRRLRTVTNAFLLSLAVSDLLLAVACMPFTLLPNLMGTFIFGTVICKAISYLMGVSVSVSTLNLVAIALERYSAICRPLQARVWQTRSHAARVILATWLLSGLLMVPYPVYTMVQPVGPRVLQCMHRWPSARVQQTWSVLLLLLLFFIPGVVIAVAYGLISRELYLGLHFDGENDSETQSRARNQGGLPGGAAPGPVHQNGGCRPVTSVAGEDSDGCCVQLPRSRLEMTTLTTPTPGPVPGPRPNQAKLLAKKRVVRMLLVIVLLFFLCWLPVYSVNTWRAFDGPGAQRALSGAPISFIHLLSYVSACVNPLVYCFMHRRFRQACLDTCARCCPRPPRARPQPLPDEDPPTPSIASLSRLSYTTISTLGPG
How it was run: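 Isolated, lumen-perfused stomach from immature rats (33-50 g, ca. 21 days) in a 37° organ bath with 3×10^−8 M 5-methylfurmethide, gassed 95% O2/5% CO2. Compound added serosally after 120 min stabilisation; cumulative pentagastrin dose-response curves begun 60 min later, acid secretion followed by perfusate pH.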

SMILES	Ki (CCKB receptor) [nM]	Kb (gastrin receptor) [nM]
CCCc1nc(C(=O)Nc2cccc(C(=O)O)c2)c(CCC23CC4CC(CC(C4)C2)C3)[nH]1 [Example 81, 3-{[5-(2-Adamantan-1-yl-ethyl)-2-propyl-1H-imidazole-4-carbonyl]-amino}-benzoic Acid]	269	52.5
Cc1ccccc1-c1nc(CCC23CC4CC(CC(C4)C2)C3)c(C(=O)Nc2cccc(C(=O)O)c2)n1C [Example 74, 3-{[5-(2-Adamantan-1-yl-ethyl)-3-methyl-2-o-tolyl-3H-imidazole-4-carbonyl]-amino}-benzoic Acid]	324	25.7
Cc1ccccc1-c1nc(C(=O)Nc2cccc(C(=O)O)c2C)c(CCC23CC4CC(CC(C4)C2)C3)[nH]1 [Example 104, 3-{[5-(2-Adamantan-1-yl-ethyl)-2-o-tolyl-1H-imidazole-4-carbonyl]-amino}-2-methyl-benzoic Acid]	129	42.7
COc1cccc(-c2nc(C(=O)Nc3cccc(C(=O)O)c3)c(CCC3CCCCCC3)[nH]2)c1 [Example 42, 3-{[5-(2-Cycloheptyl-ethyl)-2-(3-methoxy-phenyl)-1H-imidazole-4-carbonyl]-amino}-benzoic Acid]	1510	50.1
O=C(O)c1cccc(NC(=O)c2nc(-c3ccc(O)cc3)[nH]c2CCC23CC4CC(CC(C4)C2)C3)c1 [Example 63, 3-{[5-(2-Adamantan-1-yl-ethyl)-2(4-hydroxy-phenyl)-1H-imidazole-4-carbonyl]-amino}-benzoic Acid]	1100	1620
Cc1nc(C(=O)Nc2cccc(C(=O)O)c2)c(CCC23CC4CC(CC(C4)C2)C3)[nH]1 [Example 108, 3-{[5-(2-Adamantan-1-yl-ethyl)-2-methyl-1H-imidazole-4-carbonyl]-amino}-benzoic Acid]	2340	1550
Cc1ccc(NC(=O)c2nc(-c3c(C)cccc3C)[nH]c2CCC23CC4CC(CC(C4)C2)C3)cc1C(=O)O [Example 153, 5-{[5-(2-Adamantan-1-yl-ethyl)-2-(2,6-dimethyl-phenyl)-1H-imidazole-4-carbonyl]-amino}-2-methyl-benzoic Acid]	4.9	57.5
Cc1ccccc1-c1nc(C(=O)NCC(=O)Nc2cccc(C(=O)O)c2)c(CCC23CC4CC(CC(C4)C2)C3)[nH]1 [Example 103]	263	661
Cc1ccc(NC(=O)c2nc(C3CCCCC3)[nH]c2CCC23CC4CC(CC(C4)C2)C3)cc1C(=O)O [Example 135, 5-{[5-(2-Adamantan-1-yl-ethyl)-2-cyclohexyl-1H-imidazole-4-carbonyl]-amino}-2-methyl-benzoic Acid]	6.17	22.4
CCCC(CCC)c1nc(C(=O)Nc2cccc(C(=O)O)c2)c(CCC23CC4CC(CC(C4)C2)C3)[nH]1 [Example 125, 3-{[5-(2-Adamantan-1-yl-ethyl)-2-(1-propyl-butyl)-1H-imidazole-4-carbonyl]-amino}-benzoic Acid]	105	2.29
O=C(O)c1cc(NC(=O)c2cc(-c3ccc4ccccc4c3)[nH]c2CC2CCCCCC2)cc(C(=O)O)c1 [Example 11, 5-[(2-Cycloheptylmethyl-5-naphthalene-2-yl-1H-pyrrole-3-carbonyl)-amino]-isophthalic Acid]	87.1	1620
CC(C)c1nc(C(=O)Nc2cccc(C(=O)O)c2)c(CCC23CC4CC(CC(C4)C2)C3)[nH]1 [Example 78, 3-{[5-(2-Adamantan-1-yl-ethyl)-2-isopropyl-1H-imidazole-4-carbonyl]-amino}-benzoic Acid]	186	20.9
Cc1ccccc1-c1nc(NC(=O)c2cccc(C(=O)O)c2)c(CCC23CC4CC(CC(C4)C2)C3)[nH]1 [Example 92, N-[5-(2-Adamantan-1-yl-ethyl)-2-o-tolyl-1H-imidazol-4-yl]-isophthalamic Acid]	1020	158
CCCCC(CC)c1nc(C(=O)Nc2cccc(C(=O)O)c2)c(CCC23CC4CC(CC(C4)C2)C3)[nH]1 (stereo not drawn) [Example 124, 3-{[5-(2-Adamantan-1-yl-ethyl)-2-(1-ethyl-pentyl)-1H-imidazole-4-carbonyl]-amino}-benzoic Acid]	63.1	15.5

Results, then the compound that gave them:

Ki (CCKB receptor) [nM]	Kb (gastrin receptor) [nM]	SMILES
776	70.8	O=C(O)c1cccc(NC(=O)c2[nH]c(C3CC3)nc2CCC23CC4CC(CC(C4)C2)C3)c1 [Example 197, 3-{[5-(2-Adamantan-1-yl-ethyl)-2-cyclopropyl-1H-imidazole-4-carbonyl]-amino}-benzoic Acid]
457	155	O=C(O)c1cccc(NC(=O)c2nc(-c3ccco3)[nH]c2CCC23CC4CC(CC(C4)C2)C3)c1 [Example 185, 3-{[5-(2-Adamantan-1-yl-ethyl)-2-furan-2-yl-1H-imidazole-4-carbonyl]-amino}benzoic Acid]
21.4	3.72	O=C(O)c1cccc(NC(=O)c2nc(C3CCCCC3)[nH]c2CCC2C3CC4CC(C3)CC2C4)c1 (stereo not drawn) [Example 172, 3-{[5-(2-Adamantan-2-yl-ethyl)-2-cyclohexyl-1H-imidazole-4-carbonyl]-amino}-benzoic Acid]
3.98	3.98	Cc1ccc(NC(=O)c2nc(C3CCCCC3)[nH]c2COC23CC4CC(CC(C4)C2)C3)cc1C(=O)O [Example 217, 5-{[5-(Adamantan-1-yloxymethyl)-2-cyclohexyl-1H-imidazole-4-carbonyl]-amino}-2-methyl-benzoic Acid]
3.63	832	Cc1ccccc1-c1nc(C(=O)Nc2ccc(Br)c(C(=O)O)c2)c(CCC23CC4CC(CC(C4)C2)C3)[nH]1 [Example 246, 5-{[5-(2-Adamantan-1-yl-ethyl)-2-o-tolyl-1H-imidazole-4-carbonyl]-amino}-2-bromo-benzoic Acid]
6.46	240	Cc1ccccc1-c1nc(C(=O)Nc2ccc(Cl)c(C(=O)O)c2)c(CCC23CC4CC(CC(C4)C2)C3)[nH]1 [Example 245, 5-{[5-(2-Adamantan-1-yl-ethyl)-2-o-tolyl-1H-imidazole-4-carbonyl]-amino}-2-chloro-benzoic Acid]
28.2	13.8	Cc1ccc(NC(=O)c2nc(C3CCCCC3)[nH]c2CCC2CCCCCC2)cc1C(=O)O [Example 167, 5-{[5-(2-Cycloheptyl-ethyl)-2-cyclohexyl-1H-imidazole-4-carbonyl]-amino}-2-methyl-benzoic Acid]
8.71	4.9	CC1(c2nc(C(=O)Nc3ccc(F)c(C(=O)O)c3)c(CCC34CC5CC(CC(C5)C3)C4)[nH]2)CCCCC1 [Example 201, 5-{[5-(2-Adamantan-1-yl-ethyl)-2-(1-methyl-cyclohexyl)-1H-imidazole-4-carbonyl]-amino]-2-fluoro-benzoic Acid]
324	741	Cc1ccccc1-c1nc(CCC23CC4CC(CC(C4)C2)C3)c(C(=O)Nc2ccc(N(C)C)c(C(=O)O)c2)[nH]1 [Example 242, 5-{[5-(2-Adamantan-1-yl-ethyl)-2-o-tolyl-1H-imidazole-4-carbonyl]-amino}-2-dimethylamino-benzoic Acid]
28.8	67.6	Cc1ccc(NC(=O)c2nc(C3CCC4CC3C4(C)C)[nH]c2CCC23CC4CC(CC(C4)C2)C3)cc1C(=O)O (stereo not drawn) [Example 191, 5-{[5-(2-Adamantan-1-yl-ethyl)-2-(6,6-dimethyl-bicyclo[3.1.1]hept-2-yl)-1H-imidazole-4-carbonyl]-amino}-2-methyl-benzoic Acid]
